pKd: −log10 of the molar value.
Assays:
[1] = biological target: T1, orotidine 5'-monophosphate decarboxylase (ScOMPDC) (Saccharomyces cerevisiae, UniProt P03962, R235A)
T1 sequence (P03962 2-267 R235A): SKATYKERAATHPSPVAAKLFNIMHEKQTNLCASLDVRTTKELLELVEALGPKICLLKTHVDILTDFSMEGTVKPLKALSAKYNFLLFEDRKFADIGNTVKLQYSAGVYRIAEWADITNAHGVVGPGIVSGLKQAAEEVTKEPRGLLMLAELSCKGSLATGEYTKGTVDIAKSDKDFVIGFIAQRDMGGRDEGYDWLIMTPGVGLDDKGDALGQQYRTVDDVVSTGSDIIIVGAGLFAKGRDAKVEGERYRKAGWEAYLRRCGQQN

[2] = biological target: T1, orotidine 5'-monophosphate decarboxylase (ScOMPDC); assay: […] NMR deuterium exchange kinetics with purified enzyme, Michaelis-Menten fit; format: biochemical
[3] = biological target: T1, orotidine 5'-monophosphate decarboxylase (ScOMPDC); assay: UV decarboxylation kinetics of truncated substrate; format: biochemical

## O=[PH](O)O [HPO3^2−, phosphite dianion]
[1]
  FEO + HPO3^2- / (kcat/Km)E•HPi/Kd (M^-2 s^-1): 250 ± 15 M^−2 s^−1

## O=c1[nH]c(=O)n([C@@H]2O[C@H](COP(=O)(O)O)[C@@H](O)[C@H]2O)cc1F [h-FUMP, 5-fluorouridine 5'-monophosphate]
[2]
  pKd: 2.30

## O=C(O)c1c(F)c(=O)[nH]c(=O)n1[C@@H]1OC[C@@H](O)[C@H]1O [FEO, 1-(β-D-erythrofuranosyl)-5-fluoroorotic acid]
[3]
  FEO + HPO3^2- / (kcat/Km)E: 12 M⁻¹ s⁻¹

From publication PMC3838641 (Biochemistry, 2013)
